Where two headings read alike, the source gives them in different places.
Key:
HT-29 cells = test: CellTiter-Glo luminescent cell viability assay with HT-29 cells (72h incubation); assay type: cell-based, human; settings: Homo sapiens, HT-29, HT29 cells, read-out: CTG HT29
Procedure, shortened: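 Viability read as CellTiter-Glo luminescence after 72 h compound exposure, with 10 μM staurosporine and DMSO as control wells. Seeding 400 cells per well, compound added 24 h post-plating; IC50 from curve fitting.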

[1] = molecular target: T1, β5 subunit of the human constitutive proteasome (CPS) (Homo sapiens, UniProt P28074); test: β5 inhibition assay, human constitutive proteasome (Suc-LLVY-AMC); assay type: biochemical; settings: IC50 class, Suc-LLVY-AMC substrate
T1 construct: purchased Boston Biochem E-360
Protocol: The enzymatic activity of the β5 subunit of the human constitutive proteasome (CPS) is analyzed. In another assay, which differs from the assay of the human constitutive proteasome only in using the human immunoproteasome (IPS) the enzymatic activity of the β5 subunit of the human immunoproteasome (IPS) is analyzed. […] Inhibition is indicated as IC50 [nM] (“-”=not measured).

[2] = tested on: A549 (human lung carcinoma cell line); test: Glo assay of A549 cells (Table 3; ProteasomeGlo plating scheme); assay type: cell-based; settings: Homo sapiens
Procedure, shortened: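 After acoustic compound transfer, plates incubate 105 min (37° C., 5% CO2). Proteasome-Glo reagent containing Suc-LLVY-Glo substrate is added, plates are shaken, then luminescence is measured after 10-15 min to derive IC50 [nM]. Staurosporine and DMSO serve as controls.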

[3] = A549 cells, read-out: PGLo A549

Row | Compound | IC50 (HT-29 cells) [nM] | IC50 [1] [nM] | IC50 [2, 3] [nM] | IC50 ([2]; A549, read-out: PGLo A549 [nM]) [nM]
1 | COC(=O)N(CC1NC(=O)[C@@H](NC(C)=O)CC(=O)N2CCCC(CCOc3ccc(C)c(c3)CNC1=O)C2)c1ccccc1 (stereo partly drawn) [Compound 560, methyl (((12S)-12-acetamido-5^4-methyl-8,11,14-trioxo-4-oxa-7,10-diaza-1(3,1)-piperidina-5(1,3)-benzenacyclotetradecaphane-9-yl)methyl)(phenyl)carbamate] | < 100 | < 100 | 100 to 500 | 
2 | Cc1ccc2cc1CNC(=O)C(CCc1ccncc1)NC(=O)[C@@H](NC(=O)OCc1ccccc1)CC(=O)N1CCCC(CCO2)C1 (stereo partly drawn) [Compound 336, benzyl ((12S)-5^4-methyl-8,11,14-trioxo-9-(2-(pyridin-4-yl)ethyl)-4-oxa-7,10-diaza-1(3,1)-piperidina-5(1,3)-benzenacyclotetradecaphane-12-yl)carbamate] | < 100 | < 100 | < 100 | 
3 | CC(=O)N[C@H]1CC(=O)N(C)CCCCOc2ccc(C)c(c2)CNC(=O)[C@H](CCc2ccccc2)NC1=O [Compound 296, N-(1^4,7-dimethyl-8,11,14-trioxo-13-phenethyl-2-oxa-7,12,15-triaza-1(1,3)-benzenacyclohexadecaphane-10-yl)acetamide] | 100 to 500 | 500 to 1000 | 500 to 1000 | 
4 | Cc1ccc2cc1CNC(=O)[C@H](CCc1ccccc1)NC(=O)[C@@H](NC(=O)Cc1cc(Cl)c(N)c(Cl)c1)CC(=O)N1CCCC(CCO2)C1 (stereo partly drawn) [Compound 320, 2-(4-amino-3,5-dichlorophenyl)-N-((9S,12S)-5^4-methyl-8,11,14-trioxo-9-phenethyl-4-oxa-7,10-diaza-1(3,1)-piperidina-5(1,3)-benzenacyclotetradecaphane-12-yl)acetamide] | < 100 | < 100 | < 100 | 
5 | Cc1ccc2cc1CNC(=O)[C@H](CCc1ccccc1)NC(=O)[C@@H](NC(=O)Cc1csc(N)n1)CC(=O)N1CCCC(CCO2)C1 (stereo partly drawn) [Compound 302, 2-(2-aminothiazol-4-yl)-N-((9S,12S)-5^4-methyl-8,11,14-trioxo-9-phenethyl-4-oxa-7,10-diaza-1(3,1)-piperidina-5(1,3)-benzenacyclotetradecaphane-12-yl)acetamide] | < 100 | < 100 | < 100 | 
6 | CO[C@@H](C(=O)N[C@H]1CC(=O)N2CCCC(CCOc3ccc(C)c(c3)CNC(=O)C(c3cnn(C)c3)NC1=O)C2)c1ccccc1 (stereo partly drawn) [Compound 361, (2R)-2-methoxy-N-((12S)-5^4-methyl-9-(1-methyl-1H-pyrazol-4-yl)-8,11,14-trioxo-4-oxa-7,10-diaza-1(3,1)-piperidina-5(1,3)-benzenacyclotetradecaphane-12-yl)-2-phenylacetamide] | < 100 | < 100 | 100 to 500 | 
7 | Cc1ccc2cc1CNC(=O)[C@H](CCc1ccccc1)NC(=O)[C@@H](NC(=O)OCc1ccccc1)CCCCC(=O)N1CC(CCO2)C1 [Compound 353, benzyl ((9S,12S)-5^4-methyl-8,11,17-trioxo-9-phenethyl-4-oxa-7,10-diaza-1(3,1)-azetidina-5(1,3)-benzenacycloheptadecaphane-12-yl)carbamate] | < 100 | < 100 | < 100 | 
8 | Cc1ccc2cc1CNC(=O)[C@H](CCc1ccccc1)NC(=O)[C@@H](NC(=O)OCc1ccccc1)CCC(=O)N1CCCC3(CC(C3)O2)C1 [Compound 301, benzyl ((7S,10S)-3^4-methyl-6,9,13-trioxo-7-phenethyl-2-oxa-5,8-diaza-14(3,1)-piperidina-3(1,3)-benzena-1(1,3)-cyclobutanatetradecaphane-10-yl)carbamate] | 100 to 500 | 1000 to 5000 | 1000 to 5000 | 
9 | CC(=O)N[C@H]1CC(=O)N2CCCC(CCOc3ccc(C)c(c3)CNC(=O)C(Cc3ccccc3)NC1=O)C2 (stereo partly drawn) [Compound 558, N-((12S)-9-benzyl-5^4-methyl-8,11,14-trioxo-4-oxa-7,10-diaza-1(3,1)-piperidina-5(1,3)-benzenacyclotetradecaphane-12-yl)acetamide] | < 100 | < 100 | 100 to 500 | 
10 | CC(=O)N[C@H]1CC(=O)N2CCCC(CCOc3ccc(C)c(c3)CNC(=O)C(c3cn(C)cn3)NC1=O)C2 (stereo partly drawn) [Compound 557, N-((12S)-5^4-methyl-9-(1-methyl-1H-imidazol-4-yl)-8,11,14-trioxo-4-oxa-7,10-diaza-1(3,1)-piperidina-5(1,3)-benzenacyclotetradecaphane-12-yl)acetamide] | 100 to 500 | < 100 | < 100 | 
11 | CC(=O)N[C@H]1CC(=O)N2CCCC(CCOc3ccc(C)c(c3)CNC(=O)C(CCc3cccnc3)NC1=O)C2 (stereo partly drawn) [Compound 549, N-((12S)-5^4-methyl-8,11,14-trioxo-9-(2-(pyridin-3-yl)ethyl)-4-oxa-7,10-diaza-1(3,1)-piperidina-5(1,3)-benzenacyclotetradecaphane-12-yl)acetamide] | < 100 | < 100 | 100 to 500 | 
12 | Cc1ccc2cc1CNC(=O)[C@H](CCc1ccccc1)NC(=O)[C@@H](Nc1ncccn1)CC(=O)N1CCCC(CCO2)C1 (stereo partly drawn) [Compound 34, (9S,12S)-5^4-methyl-9-phenethyl-12-(pyrimidin-2-ylamino)-4-oxa-7,10-diaza-1(3,1)] | < 100 | < 100 |  | < 100
13 | Cc1n[nH]c(CC(=O)N[C@H]2CC(=O)N3CCCC(CCOc4ccc(C)c(c4)CNC(=O)[C@H](CCc4ccccc4)NC2=O)C3)n1 (stereo partly drawn) [Compound 332, 2-(3-methyl-1H-1,2,4-triazol-5-yl)-N-((9S,12S)-5^4-methyl-8,11,14-trioxo-9-phenethyl-4-oxa-7,10-diaza-1(3,1)-piperidina-5(1,3)-benzenacyclotetradecaphane-12-yl)acetamide] | < 100 | < 100 | < 100 | 
14 | Cc1ccc2cc1CNC(=O)C(c1cnn(C)c1)NC(=O)[C@@H](NC(=O)C1CCCc3ccccc31)CC(=O)N1CCCC(CCO2)C1 (stereo partly drawn) [Compound 360, N-((12S)-5^4-methyl-9-(1-methyl-1H-pyrazol-4-yl)-8,11,14-trioxo-4-oxa-7,10-diaza-1(3,1)-piperidina-5(1,3)-benzenacyclotetradecaphane-12-yl)-1,2,3,4-tetrahydronaphthalene-1-carboxamide] | < 100 | < 100 | < 100 | 
15 | CC(=O)N[C@H]1CC(=O)N2CCCC(CCOc3ccc(C)c(c3)CNC(=O)C(CCc3nccs3)NC1=O)C2 (stereo partly drawn) [Compound 563, N-((12S)-5^4-methyl-8,11,14-trioxo-9-(2-(thiazol-2-yl)ethyl)-4-oxa-7,10-diaza-1(3,1)-piperidina-5(1,3)-benzenacyclotetradecaphane-12-yl)acetamide] | < 100 | < 100 | < 100 | 
16 | Cc1ccc2cc1CNC(=O)C(CCc1cnccn1)NC(=O)[C@@H](NC(=O)C1(c3ccc(N)cc3)CC1)CC(=O)N1CCCC(CCO2)C1 (stereo partly drawn) [Compound 371, 1-(4-aminophenyl)-N-((9S,12S)-5^4-methyl-8,11,14-trioxo-9-(2-(pyrazin-2-yl)ethyl)-4-oxa-7,10-diaza-1(3,1)-piperidina-5(1,3)-benzenacyclotetradecaphane-12-yl)cyclopropane-1-carboxamide] | < 100 | < 100 | < 100 | 
17 | Cc1ccc2cc1CNC(=O)[C@H](CCc1ccccc1)NC(=O)[C@@H](NC(=O)OCc1ccccc1)CCCC(=O)N1CCC(CCO2)C1 (stereo partly drawn) [Compound 352, benzyl ((9S, 12S)-5^4-methyl-8,11,16-trioxo-9-phenethyl-4-oxa-7,10-diaza-1(3,1)-pyrrolidina-5(1,3)-benzenacyclohexadecaphane-12-yl)carbamate] | < 100 | < 100 | < 100 | 
18 | CC(=O)N[C@H]1CC(=O)N2CCCC(CCOc3ccc(C)c(c3)CNC(=O)C(c3cnn(CCC(=O)O)c3)NC1=O)C2 (stereo partly drawn) [Compound 567, 3-(4-((12S)-12-acetamido-5^4-methyl-8,11,14-trioxo-4-oxa-7,10-diaza-1(3,1)-piperidina-5(1,3)-benzenacyclotetradecaphane-9-yl)-1H-pyrazol-1-yl)propanoic acid] | 100 to 500 | < 100 | < 100 | 
19 | CCOC(=O)N[C@H]1CC(=O)N2CCCC(CCOc3ccc(C)c(c3)CNC(=O)C(c3cnn(C)c3)NC1=O)C2 (stereo partly drawn) [Compound 363, Ethyl ((12S)-5^4-methyl-9-(1-methyl-1H-pyrazol-4-yl)-8,11,14-trioxo-4-oxa-7,10-diaza-1(3,1)-piperidina-5(1,3)-benzenacyclotetradecaphane-12-yl)carbamate] | < 100 | < 100 | < 100 | 
20 | Cc1ccc2cc1CNC(=O)[C@H](CCc1ccccc1)NC(=O)[C@@H](NC(=O)CC1=NN(c3ccccc3)C(=O)C1)CC(=O)N1CCCC(CCO2)C1 (stereo partly drawn) [Compound 334, N-((9S,12S)-5^4-methyl-8,11,14-trioxo-9-phenethyl-4-oxa-7,10-diaza-1(3,1)-piperidina-5(1,3)-benzenacyclotetradecaphane-12-yl)-2-(5-oxo-1-phenyl-4,5-dihydro-1H-pyrazol-3-yl)acetamide] | < 100 | < 100 | 100 to 500 | 
